The source of these data is patent US20140364552A1, “AQUEOUS RESIN COMPOSITION COMPRISING FILM-FORMING AID, AND STEEL SHEET SURFACE TREATMENT AGENT CONTAINING THE SAME” (DIC Corporation, priority 2011, published 2014).

Data set [1] in a line: Evaluating film-forming property (cracks in cast coating film). The class given is physicochemical. On the procedure: After drying for 24 hours, the film-forming property was evaluated by visual observation based on criteria below. When no crack occurred, the film-forming property was evaluated as “A”, when fine cracks slightly occurred, the film-forming property was evaluated as “B”, and when clear cracks occurred over the entire surface of the coating film, the film-forming property was evaluated as “C”.

A short description of data set [2]: Corrosion resistance, salt spray test JIS Z2371. Type of data set: physicochemical.
Description: Each of the aqueous resin compositions immediately after preparation was applied on a galvanized steel sheet by using a film applicator so that an amount of application was 0.1 g/100 cm^2 and then dried at 80° C. for 30 seconds to form a test piece. According to a salt spray test method described in JIS Z2371, a 5 mass % aqueous sodium chloride solution was sprayed on the test piece at an ambient temperature of 35° C., and a rate of occurrence of white rust after 240 hours was measured and evaluated based on criteria below. In addition, a tape seal was attached to a portion where the aqueous resin composition was not applied (the end surfaces and back surface). When no white rust occurred, corrosion resistance was evaluated as “A”; when white rust occurred in an area of less than 5% of the whole coating area, corrosion resistance was evaluated as “B”; when white rust occurred in an area of 5% or more and less than 20% of the whole coating area, corrosion resistance was evaluated as “C”; and when white rust occurred in an area of 20% or more of the whole coating area, corrosion resistance was evaluated as “D”.
The conditions of data set [3]: cited from earlier work.
A short description of data set [4]: Evaluating alkali resistance of coating film on galvanized steel sheet. The class given is physicochemical.
Description: Each of the aqueous resin compositions immediately after preparation was applied on a galvanized steel sheet by using a film applicator so that an amount of application was 0.1 g/100 cm^2 and then dried at 80° C. for 30 seconds to form a test piece. Next, 0.5 mL of a 5% aqueous sodium hydroxyl solution was dropped on the test piece which was then allowed to stand for 30 minutes. After being allowed to stand, the appearance of a coating film in a portion where the liquid adhered was evaluated based on criteria below. When no change occurred in the appearance, alkali resistance was evaluated as “A”; when the coating film was discolored black or dissolved in an area of less than 10%, alkali resistance was evaluated as “B”; when the coating film was discolored black or dissolved in an area of 10% or more and less than 30%, alkali resistance was evaluated as “C”; and when the coating film was discolored black or dissolved in an area of 30% or more, alkali resistance was evaluated as “D”.

Turning to `CN1CCCC1=O` [N-methyl-2-pyrrolidone], in data set [1], the “film-forming property (in words)” value is reported as “excellent”. Also, the “corrosion resistance of coating film (in words)” value in data set [2] is given as “excellent”. Also, the “toxicity (in words)” value in data set [3] is on record as “problem of toxicity”. Besides, the “alkali resistance of coating film (in words)” value in data set [4] is listed as “excellent”.
